Experimental data reported in patent US20080207617A1, “Quinoline Derivatives and Quinazoline Derivatives Inhibiting Autophosphrylation of Flt3 and Medicinal Compositions Containing the Same” (KIRIN BEER KABUSHIKI KAISHA, priority 2002, published 2008).

Assays:
MOLM13 [1] = assay: Cell growth inhibitory activity using MTT method (MOLM13); type: cell-based, human; details: Homo sapiens, MOLM-13, 72 h, MOLM13 cells
Experimental: Pharmacological Test Example 3
Measurement of Cell Growth Inhibitory Activity Using MTT Method
Human leukemia cell line MOLM13 (subdivided from Hayashibara Biochemical Laboratories, Inc.) was cultured in an RPMI medium containing 10% fetal calf serum (purchased from Asahi Techno Glass Corporation) within a 5% carbon dioxide incubator until the cell density reached 50 to 90% of the maximum cell density. These cells were seeded into wells, containing an RPMI medium containing 10% fetal calf serum, in a 96-well flat bottom plate in an amount of […] per well. The amount of the solution of the medium in each well was brought to 100 μl, and a test compound was added thereto to 500 ng, 100 ng, 20 ng, and 4 ng per ml. After culture within an incubator for 72 hr, 10 μl of a 5 mg/ml MTT (3-(4,5-dimethylthiazol-2-yl)-2,5-diphenyl tetrazolium bromide) solution (purchased from SIGMA) was added to the medium, and a reaction was allowed to proceed for 4 hr. Thereafter, 100 μl of a 0.04 N hydrochloric acid-isopropanol solution was added to completely dissolve the resultant MTT formazan crystal. After the dissolution, absorbance at 550 nm was measured using 620 nm as a reference wavelength with a microplate reader (DIGISCAN) (It is regarded that, in the MTT method, the viable cell count is reflected, and linearity is observed in a cell count per well range of 5×10^5 to 2×10^2 cells). After 72 hr, the absorbance of only the medium free from cells was subtracted from the absorbance of the well without the addition of the test compound to determine a value which was presumed to be 100%. On the other hand, the absorbance with the addition of the compound was expressed in terms of % growth.

MOLM13 [2] = assay: Cell growth inhibitory activities on cultured human leukemia cells MOLM-13 (WST-1); type: cell-based; details: Homo sapiens, MOLM-13, 72 h, 3 days culture
Experimental: Pharmacological Test Example 4
Cell Growth Inhibitory Activities on Cultured Human Leukemia Cells
(§1) Human leukemia cells MOLM13 (subdivided from Hayashibara Biochemical Laboratories, Inc.) were seeded in an amount of 3×10^3 using a DMEM medium containing 10% fetal calf serum (purchased from GIBCO) in a 96-well flat bottom plate. A solution of a test compound in dimethyl sulfoxide was added to each well and was cultured in a 5% carbon dioxide incubator for 3 days. Three days after the initiation of the culture, 10 μl of a WST-1 solution in Cell Counting Kit (purchased from Wako Pure Chemical Industries, Ltd.) was added to each well for a color reaction. After proper color development, the absorbance was measured with a microplate reader under conditions of measurement wavelength 450 nm and reference wavelength 650 nm. The growth ratio for each well was determined by presuming the absorbance without the addition of the medicament to be 100% growth ratio and the absorbance of the well without seeding of the cells to be 0% growth ratio. The concentration of the test compound was varied on several levels, the cell growth ratio for each case was determined, and the concentration of the test compound necessary for inhibiting 50% of cell growth ratio (IC50) was calculated.

MV4-11 = assay: Cell growth inhibitory test MV4-11 (WST-1); type: cell-based, human; details: Homo sapiens, MV4-11, 72 h, MV4-11 cells, 3 days culture
Experimental: Pharmacological Test Example 2
Cell Growth Inhibitory Test
MV4-11 (ATCC number: CRL-9591) as human leukemia cells was seeded in an amount of 3×10^3 using a DMEM medium containing 10% fetal calf serum (purchased from GIBCO) in a 96-well flat bottom plate.
as §1, with “A” for “Human leukemia cells MOLM13 (subdivided from Hayashibara Biochemical Laboratories, Inc.) were seeded in an amount of 3×10^3 using a DMEM medium containing 10% fetal calf serum (purchased from GIBCO) in a 96-well flat bottom plate. A”

MOLM13 [3] = assay: Tumor growth inhibitory activities in nude mice xenograft model inoculated with human leukemia cells MOLM13; type: in vivo; details: Mus musculus, MOLM-13, po, 216 h; 50 mg/kg orally once a day, day 9; read-out: TGIR (%) (measurement date)
Experimental: Pharmacological Test Example 5
Tumor Growth Inhibitory Activities in Nude Mice Xenograft Model Inoculated with Human Leukemia Cells
Human leukemia cells MOLM13 (subdivided from Hayashibara Biochemical Laboratories, Inc.) were subcutaneously transplanted into nude mice. […] The test compound suspended or dissolved in 0.5% methylcellulose was orally administered at a dose of 0.1 ml per 10 g body weight once a day for 9 days. For the control group, only vehicle was administered.
The tumor growth inhibition rate (TGIR) was calculated as follows:
The tumor growth inhibition rate (TGIR)=(1−TX/CX)×100
wherein CX represents the volume of tumor at day X for the control group when the tumor volume at the day of the start of the administration (day 1) was presumed to be 1; and TX represents the volume of tumor at day X for test compound administration groups.

SMILES	IC50 (MOLM13 [1]) [nM]	IC50 (MOLM13 [2]) [nM]	IC50 (MV4-11) [nM]	inhibition in vivo at 50 mg/kg (MOLM13 [3]) [%]
COc1cc2c(Oc3ccc(NC(=O)NCCC(C)(C)C)cc3Cl)ccnc2cc1OCCN1CC(C)OC(C)C1 (centres unmarked) [Compound 70, 1-(3-Chloro-4-{7-[2-(2,6-dimethyl-morpholin-4-yl)-ethoxy]-6-methoxy-quinolin-4-yloxy}-phenyl)-3-(3,3-dimethyl-butyl)-urea]	29.6	3	2	
COc1cc2c(Oc3ccc(NC(=O)NCCC(C)C)c(F)c3)ccnc2cc1OCCN1CCOCC1 [Compound 73, 1-{2-Fluoro-4-[6-methoxy-7-(2-morpholin-4-yl-ethoxy)-quinolin-4-yloxy]-phenyl}-3-(3-methyl-butyl)-urea]	21.5	20	6	
COc1cc2nccc(Oc3ccc(NC(=O)NCCC4CCCCC4)cc3F)c2cc1OC [Compound 16, 1-(2-Cyclohexyl-ethyl)-3-[4-(6,7-dimethoxy-quinolin-4-yloxy)-3-fluoro-phenyl]-urea]	18.8	7	4	
COc1cc2c(Oc3ccc(NC(=O)NCCC(C)(C)C)c(F)c3)ccnc2cc1OCCN1C(C)CCCC1C (centres unmarked) [Compound 60, 1-(3,3-Dimethyl-butyl)-3-(4-{7-[2-(2,6-dimethyl-piperidin-1-yl)-ethoxy]-6-methoxy-quinolin-4-yloxy}-2-fluoro-phenyl)-urea]	108	59	33	
COc1cc2c(Oc3ccc(NC(=O)NCCC(C)(C)C)c(F)c3)ccnc2cc1OCCCN1CCN(C)CC1 [Compound 76, 1-(3,3-Dimethyl-butyl)-3-(2-fluoro-4-{6-methoxy-7-[3-(4-methyl-piperazin-1-yl)-propoxy]-quinolin-4-yloxy}-phenyl)-urea]				34.3
COc1cc2c(Oc3ccc(NC(=O)NC4CC(C)CC(C)(C)C4)c(F)c3)ccnc2cc1OCCN1CCCCC1 (centres unmarked) [Compound 57, 1-{2-Fluoro-4-[6-methoxy-7-(2-piperidin-1-yl-ethoxy)-quinolin-4-yloxy]-phenyl}-3-(3,3,5-trimethyl-cyclohexyl)-urea]	120	29	19	
COc1cc2c(Oc3ccc(NC(=O)NC4CCCC(C)(C)C4)c(F)c3)ccnc2cc1OCCN1CCOCC1 (centres unmarked) [Compound 69, 1-(3,3-Dimethyl-cyclohexyl)-3-{2-fluoro-4-[6-methoxy-7-(2-morpholin-4-yl-ethoxy)-quinolin-4-yloxy]-phenyl}-urea]	17.7	8	2	
COc1cc2c(Oc3ccc(NC(=O)NCCC4CCCC4)c(F)c3)ccnc2cc1OCCN1CCCCC1 [Compound 65, 1-(2-Cyclopentyl-ethyl)-3-{2-fluoro-4-[6-methoxy-7-(2-piperidin-1-yl-ethoxy)-quinolin-4-yloxy]-phenyl}-urea]	24.6	9	4	
COc1cc2c(Oc3ccc(NC(=O)NCCC(C)(C)C)cc3)ccnc2cc1OCCN1CC(C)CC(C)C1 (centres unmarked) [Compound 53, 1-(3,3-Dimethyl-butyl)-3-(4-{7-[2-(3,5-dimethyl-piperidin-1-yl)-ethoxy]-6-methoxy-quinolin-4-yloxy}-phenyl)-urea]	16.7	13	4	
COc1cc2nccc(Oc3ccc(NC(=O)NCCC4CCCC4)cc3F)c2cc1OC [Compound 18, 1-(2-Cyclopentyl-ethyl)-3-[4-(6,7-dimethoxy-quinolin-4-yloxy)-3-fluoro-phenyl]-urea]	40.3	2	1	
COc1cc2c(Oc3ccc(NC(=O)NCCC4CCCCC4)c(F)c3)ccnc2cc1OCCN1CCCCC1 [Compound 64, 1-(2-Cyclohexyl-ethyl)-3-{2-fluoro-4-[6-methoxy-7-(2-piperidin-1-yl-ethoxy)-quinolin-4-yloxy]-phenyl}-urea]	195	19	13	
COc1cc2c(Oc3ccc(NC(=O)NCCC4CCCCC4)cc3F)ccnc2cc1OCCN1CCCCC1 [Compound 58, 1-(2-Cyclohexyl-ethyl)-3-{3-fluoro-4-[6-methoxy-7-(2-piperidin-1-yl-ethoxy)-quinolin-4-yloxy]-phenyl}-urea]	51.6	17	4	
COc1cc2c(Oc3ccc(NC(=O)NCCC4CCCCC4)c(F)c3)ccnc2cc1OCCN1CCOCC1 [Compound 72, 1-(2-Cyclohexyl-ethyl)-3-{2-fluoro-4-[6-methoxy-7-(2-morpholin-4-yl-ethoxy)-quinolin-4-yloxy]-phenyl}-urea]	54.5	8	3	
COc1cc2c(Oc3ccc(NC(=O)NCCC(C)(C)C)c(Cl)c3)ccnc2cc1OCCCN1CCCCC1 [Compound 46, 1-{2-Chloro-4-[6-methoxy-7-(3-piperidin-1-yl-propoxy)-quinolin-4-yloxy]-phenyl}-3-(3,3-dimethyl-butyl)-urea]	76.8	123	145	
COc1cc2c(Oc3ccc(NC(=O)NC4CC(C)CC(C)(C)C4)cc3F)ccnc2cc1OCCN1CCCCC1 (centres unmarked) [Compound 56, 1-{3-Fluoro-4-[6-methoxy-7-(2-piperidin-1-yl-ethoxy)-quinolin-4-yloxy]-phenyl}-3-(3,3,5-trimethyl-cyclohexyl)-urea]	11.3	26	14	
COc1cc2c(Oc3ccc(NC(=O)NCCC(C)(C)C)cc3Cl)ccnc2cc1OCCCN1CCN(C)CC1 [Compound 77, 1-(3,3-Dimethyl-butyl)-3-(3-chloro-4-{6-methoxy-7-[3-(4-methyl-piperazin-1-yl)-propoxy]-quinolin-4-yloxy}-phenyl)-urea]				70.4
COc1cc2c(Oc3ccc(NC(=O)NCCC(C)(C)CO)c(F)c3)ccnc2cc1OCCN1CCCCC1 [Compound 63, 1-{2-Fluoro-4-[6-methoxy-7-(2-piperidin-1-yl-ethoxy)-quinolin-4-yloxy]-phenyl}-3-(4-hydroxy-3,3-dimethyl-butyl)-urea]	47.8	22	10	
COc1cc2c(Oc3ccc(NC(=O)NCCC(C)(C)C)cc3F)ccnc2cc1OCCN1C(C)CCCC1C (centres unmarked) [Compound 62, 1-(3,3-Dimethyl-butyl)-3-(4-{7-[2-(2,6-dimethyl-piperidin-1-yl)-ethoxy]-6-methoxy-quinolin-4-yloxy}-3-fluoro-phenyl)-urea]	26.5	7	4	
COc1cc2c(Oc3ccc(NC(=O)NCCC(C)(C)C)cc3)ccnc2cc1OCCCN1CC(C)CC(C)C1 (centres unmarked) [Compound 54, 1-(3,3-Dimethyl-butyl)-3-(4-{7-[3-(3,5-dimethyl-piperidin-1-yl)-propoxy]-6-methoxy-quinolin-4-yloxy}-phenyl)-urea]	19.7	10	3	
